Six compounds from patent publication US8933039B2 (NPS Pharmaceuticals, Inc., priority 1995, dated 2015) can be followed below.

In one data set the target is DPP-IV (Homo sapiens, UniProt P27487). Put plainly: Assay for resistance to dipeptidyl peptidase IV (RP-HPLC of cleavage product). Particulars: human, isolated human placental DPP-IV (dipeptidyl peptidase IV), pH 7.4, % Cleaved by DPP-IV, as Example 3: human placental DPP-IV, 37° C., PBS pH 7.4.
The test system of a further data set is CD1 mice. The data set is described as follows: Intestinotrophic activity assessment: small bowel weight in mice. The data set is classed as in vivo. The following applies: mice, as Example 4; relative to native rat GLP-2(1-33). As to the method:
Recipients were CD1 mice obtained from Charles River Laboratory (Ontario, Canada). The CD1 mice were aged-matched females at time of injection (n=3-4 per group), 6 weeks of age, unless otherwise specified. The animals were allowed a minimum of 24 hours to acclimatize to the laboratory facility before the initiation of each experiment. Animals were identified by ear punch. The mice were not restricted by diet or activity during the experiments. The light/dark cycle was 12 hours, between 6 pm to 6 am. Controls were age- and sex-matched (n=3-4) animals. Mice were injected subcutaneously, twice a day (b.i.d.), with 2.5 μg peptide in a total volume of 0.5 cc of PBS and were monitored daily in the laboratory facility. Animals were sacrificed 10 or 14 days after injection, and were fasted at least 20 hours before sacrifice.
The mice were anaesthetised with CO2 and exsanguinated by cardiac puncture. Blood was collected in 75 μl of TED (Trasysol; EDTA (5000 KIU/ml: 1.2 mg/ml; Diprotin-A), and the blood was centrifuged at 14 k×g for 5 minutes and the plasma was stored at −70 prior to analysis. The small bowel was removed from the peritoneal cavity, from pylorus to cecum, cleaned weighed and measured. For comparative purpose, sections from each animal were obtained from the identical anatomical position. Fragments each measuring 1.5-2.0 cm in length were obtained 8±2 cm, 18±2 cm, 32±2 cm from pylorus for histomorphometry representing proximal jejunum, distal jejunum and distal ileum. Each small bowel fragment was opened longitudinally on its antimesenteric border in a tissue block and then placed on 10% formalin (vol./vol.) overnight, then transferred to 70% […].
Percentage change in small bowel weight was calculated by dividing the mean change in bowel weight of analog treated mice, relative to mice treated with vehicle only, by the mean bowel weight of mice treated with vehicle only, and multiplying this figure by 100.
Experiments assessing the small bowel inducing activity of various analogs was repeated as described above for Example 4. In these experiments, the small bowel inducing activity of each analog in mice was calculated relative to that of native rat GLP-2(1-33) (expressed as 100% of activity). Resistance of analogs to DPP-IV cleavage was performed as described above in Example 3.

Non-standard residues stand in square brackets, D forms with d. Residues, ends and D or L forms follow the SMILES beside them. Pen = CC(C)(S)[C@H](N)C(=O)O; Phg = N[C@H](C(=O)O)c1ccccc1; Nva = CCC[C@H](N)C(=O)O; Abu = CC[C@H](N)C(=O)O; βAla = NCCC(=O)O

DPP-IV, sequence (P27487 whole entry): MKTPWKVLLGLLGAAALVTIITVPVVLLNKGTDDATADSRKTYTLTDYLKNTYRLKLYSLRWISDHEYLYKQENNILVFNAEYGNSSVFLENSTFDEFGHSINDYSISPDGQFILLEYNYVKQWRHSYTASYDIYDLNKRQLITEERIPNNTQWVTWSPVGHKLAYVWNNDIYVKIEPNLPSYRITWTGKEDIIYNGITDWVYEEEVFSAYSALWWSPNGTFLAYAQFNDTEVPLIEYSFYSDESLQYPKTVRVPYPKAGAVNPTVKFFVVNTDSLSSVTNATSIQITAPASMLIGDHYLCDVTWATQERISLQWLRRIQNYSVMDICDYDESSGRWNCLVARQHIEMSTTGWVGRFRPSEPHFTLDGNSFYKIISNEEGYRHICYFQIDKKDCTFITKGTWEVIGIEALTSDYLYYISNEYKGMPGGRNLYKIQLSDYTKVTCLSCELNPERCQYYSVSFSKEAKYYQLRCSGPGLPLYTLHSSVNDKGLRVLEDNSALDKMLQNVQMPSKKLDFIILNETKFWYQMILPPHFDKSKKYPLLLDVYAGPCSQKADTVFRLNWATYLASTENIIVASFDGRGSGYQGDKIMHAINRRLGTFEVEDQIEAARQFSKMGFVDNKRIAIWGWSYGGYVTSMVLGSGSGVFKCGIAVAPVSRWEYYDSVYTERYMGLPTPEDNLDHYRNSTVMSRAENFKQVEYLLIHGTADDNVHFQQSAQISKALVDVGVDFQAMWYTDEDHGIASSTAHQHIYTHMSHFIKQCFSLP
Description for DPP-IV: The mixture was incubated at 37° C. in a circulating water bath for 24 hours. The incubation was quenched by the addition of 50 μl of a solution of diprotin A prepared at a concentration of 4 mg/ml in PBS. Each peptide was tested in duplicate.
Each sample was analyzed by reverse-phase (RP) HPLC as follows: 90 μl of the quenched incubation mixture was injected onto a Rainin Dynamax 300 Å, C18, 5 micron, 4.6×250 millimeter column. The samples were eluted with 0.1% trifluoroacetic acid (TFA) in water modified with 0.1% acetonitrile using a linear gradient and a flow rate of 1 ml per minute. Sample components were detected at 214 nanometers (nm). The extent of cleavage was measured by relative integration of the peak corresponding to the cleavage product compared to that of the remaining undigested parent peptide.

The compound `CC[C@H](C)[C@H](NC(=O)[C@H](Cc1ccccc1)NC(=O)[C@H](CC(=O)O)NC(=O)[C@H](CCCNC(=N)N)NC(=O)[C@H](C)NC(=O)[C@H](C)NC(=O)[C@H](CC(C)C)NC(=O)[C@H](CC(N)=O)NC(=O)[C@H](CC(=O)O)NC(=O)[C@H](CC(C)C)NC(=O)[C@@H](NC(=O)[C@@H](NC(=O)[C@H](CC(N)=O)NC(=O)[C@H](CCSC)NC(=O)[C@H](CCC(=O)O)NC(=O)[C@H](CC(=O)O)NC(=O)[C@H](CO)NC(=O)[C@H](Cc1ccccc1)NC(=O)[C@H](CO)NC(=O)CNC(=O)[C@H](CC(=O)O)NC(=O)CNC(=O)[C@@H](N)Cc1c[nH]cn1)[C@@H](C)O)[C@@H](C)CC)C(=O)N[C@@H](CC(N)=O)C(=O)N[C@@H](Cc1c[nH]c2ccccc12)C(=O)N[C@@H](CC(C)C)C(=O)N[C@H](C(=O)N[C@@H](CCC(N)=O)C(=O)N[C@H](C(=O)N[C@@H](CCCCN)C(=O)N[C@H](C(=O)N[C@H](C(=O)N[C@@H](CC(=O)O)C(=O)N[C@@H](Cc1ccc(O)cc1)C(=O)O)[C@@H](C)O)[C@@H](C)CC)[C@@H](C)O)[C@@H](C)CC` [[Gly2, Tyr34]hGLP-2(1-34)] returned a metabolised at 24 h, 0.19 mg/ml at DPP-IV of 0%. In addition, in the data set on CD1 mice, the “% Activity (small bowel inducing activity relative to native rat GLP-2(1-33) = 100%)” value is listed as 297%.
At DPP-IV, `CCC[C@H](NC(=O)[C@@H](N)Cc1c[nH]cn1)C(=O)N[C@@H](CC(=O)O)C(=O)NCC(=O)N[C@@H](CO)C(=O)N[C@@H](Cc1ccccc1)C(=O)N[C@@H](CO)C(=O)N[C@@H](CC(=O)O)C(=O)N[C@@H](CCC(=O)O)C(=O)N[C@@H](CCSC)C(=O)N[C@@H](CC(N)=O)C(=O)N[C@H](C(=O)N[C@H](C(=O)N[C@@H](CC(C)C)C(=O)N[C@@H](CC(=O)O)C(=O)N[C@@H](CC(N)=O)C(=O)N[C@@H](CC(C)C)C(=O)N[C@@H](C)C(=O)N[C@@H](C)C(=O)N[C@@H](CCCNC(=N)N)C(=O)N[C@@H](CC(=O)O)C(=O)N[C@@H](Cc1ccccc1)C(=O)N[C@H](C(=O)N[C@@H](CC(N)=O)C(=O)N[C@@H](Cc1c[nH]c2ccccc12)C(=O)N[C@@H](CC(C)C)C(=O)N[C@H](C(=O)N[C@@H](CCC(N)=O)C(=O)N[C@H](C(=O)N[C@@H](CCCCN)C(=O)N[C@H](C(=O)N[C@H](C(=O)N[C@@H](CC(=O)O)C(=O)O)[C@@H](C)O)[C@@H](C)CC)[C@@H](C)O)[C@@H](C)CC)[C@@H](C)CC)[C@@H](C)CC)[C@@H](C)O` [[Nval2]hGLP-2(1-33)] (H-H[Nva]DGSFSDEMNTILDNLAARDFINWLIQTKITD-OH) had a metabolised at 24 h, 0.19 mg/ml of 0%. Besides, the “% Activity (small bowel inducing activity relative to native rat GLP-2(1-33) = 100%)” value in the data set with CD1 mice is on record as 111%.
For `CC[C@H](C)[C@H](NC(=O)[C@H](Cc1ccccc1)NC(=O)[C@H](CC(=O)O)NC(=O)[C@H](CCCNC(=N)N)NC(=O)[C@H](C)NC(=O)[C@H](C)NC(=O)[C@H](CC(C)C)NC(=O)[C@H](CC(N)=O)NC(=O)[C@H](CC(=O)O)NC(=O)[C@H](CC(C)C)NC(=O)[C@@H](NC(=O)[C@@H](NC(=O)[C@H](CC(N)=O)NC(=O)[C@H](CCSC)NC(=O)[C@H](CCC(=O)O)NC(=O)[C@H](CC(=O)O)NC(=O)[C@H](CO)NC(=O)[C@H](Cc1ccccc1)NC(=O)[C@H](CO)NC(=O)CNC(=O)[C@H](CC(=O)O)NC(=O)[C@@H](NC(=O)[C@@H](N)Cc1c[nH]cn1)C(C)(C)S)[C@@H](C)O)[C@@H](C)CC)C(=O)N[C@@H](CC(N)=O)C(=O)N[C@@H](Cc1c[nH]c2ccccc12)C(=O)N[C@@H](CC(C)C)C(=O)N[C@H](C(=O)N[C@@H](CCC(N)=O)C(=O)N[C@H](C(=O)N[C@@H](CCCCN)C(=O)N[C@H](C(=O)N[C@H](C(=O)N[C@@H](CC(=O)O)C(=O)O)[C@@H](C)O)[C@@H](C)CC)[C@@H](C)O)[C@@H](C)CC` [[Pen2]hGLP-2(1-33)] (H-H[Pen]DGSFSDEMNTILDNLAARDFINWLIQTKITD-OH), in that order: 20% and 58%.
For `CC[C@H](C)[C@H](NC(=O)[C@H](Cc1ccccc1)NC(=O)[C@H](CC(=O)O)NC(=O)[C@H](CCCNC(=N)N)NC(=O)[C@H](C)NC(=O)[C@H](C)NC(=O)[C@H](CC(C)C)NC(=O)[C@H](CC(N)=O)NC(=O)[C@H](CC(=O)O)NC(=O)[C@H](CC(C)C)NC(=O)[C@@H](NC(=O)[C@@H](NC(=O)[C@H](CC(N)=O)NC(=O)[C@H](CCSC)NC(=O)[C@H](CCC(=O)O)NC(=O)[C@H](CC(=O)O)NC(=O)[C@H](CO)NC(=O)[C@H](Cc1ccccc1)NC(=O)[C@H](CO)NC(=O)CNC(=O)[C@H](CC(=O)O)NC(=O)[C@@H](NC(=O)[C@@H](N)Cc1c[nH]cn1)c1ccccc1)[C@@H](C)O)[C@@H](C)CC)C(=O)N[C@@H](CC(N)=O)C(=O)N[C@@H](Cc1c[nH]c2ccccc12)C(=O)N[C@@H](CC(C)C)C(=O)N[C@H](C(=O)N[C@@H](CCC(N)=O)C(=O)N[C@H](C(=O)N[C@@H](CCCCN)C(=O)N[C@H](C(=O)N[C@H](C(=O)N[C@@H](CC(=O)O)C(=O)O)[C@@H](C)O)[C@@H](C)CC)[C@@H](C)O)[C@@H](C)CC` [[PhGly2]hGLP-2(1-33)] (H-H[Phg]DGSFSDEMNTILDNLAARDFINWLIQTKITD-OH), in that order: 0% and 37%.
`CC[C@H](NC(=O)[C@@H](N)Cc1c[nH]cn1)C(=O)N[C@@H](CC(=O)O)C(=O)NCC(=O)N[C@@H](CO)C(=O)N[C@@H](Cc1ccccc1)C(=O)N[C@@H](CO)C(=O)N[C@@H](CC(=O)O)C(=O)N[C@@H](CCC(=O)O)C(=O)N[C@@H](CCSC)C(=O)N[C@@H](CC(N)=O)C(=O)N[C@H](C(=O)N[C@H](C(=O)N[C@@H](CC(C)C)C(=O)N[C@@H](CC(=O)O)C(=O)N[C@@H](CC(N)=O)C(=O)N[C@@H](CC(C)C)C(=O)N[C@@H](C)C(=O)N[C@@H](C)C(=O)N[C@@H](CCCNC(=N)N)C(=O)N[C@@H](CC(=O)O)C(=O)N[C@@H](Cc1ccccc1)C(=O)N[C@H](C(=O)N[C@@H](CC(N)=O)C(=O)N[C@@H](Cc1c[nH]c2ccccc12)C(=O)N[C@@H](CC(C)C)C(=O)N[C@H](C(=O)N[C@@H](CCC(N)=O)C(=O)N[C@H](C(=O)N[C@@H](CCCCN)C(=O)N[C@H](C(=O)N[C@H](C(=O)N[C@@H](CC(=O)O)C(=O)O)[C@@H](C)O)[C@@H](C)CC)[C@@H](C)O)[C@@H](C)CC)[C@@H](C)CC)[C@@H](C)CC)[C@@H](C)O` [[aAbu2]hGLP-2(1-33)] (H-H[Abu]DGSFSDEMNTILDNLAARDFINWLIQTKITD-OH) returned a metabolised at 24 h, 0.19 mg/ml on DPP-IV of 49%. In addition, the “% Activity (small bowel inducing activity relative to native rat GLP-2(1-33) = 100%)” value in the data set with CD1 mice is 84%.
For `CC[C@H](C)[C@H](NC(=O)[C@H](Cc1ccccc1)NC(=O)[C@H](CC(=O)O)NC(=O)[C@H](CCCNC(=N)N)NC(=O)[C@H](C)NC(=O)[C@H](C)NC(=O)[C@H](CC(C)C)NC(=O)[C@H](CC(N)=O)NC(=O)[C@H](CC(=O)O)NC(=O)[C@H](CC(C)C)NC(=O)[C@@H](NC(=O)[C@@H](NC(=O)[C@H](CC(N)=O)NC(=O)[C@H](CCSC)NC(=O)[C@H](CCC(=O)O)NC(=O)[C@H](CC(=O)O)NC(=O)[C@H](CO)NC(=O)[C@H](Cc1ccccc1)NC(=O)[C@H](CO)NC(=O)CNC(=O)[C@H](CC(=O)O)NC(=O)CCNC(=O)[C@@H](N)Cc1c[nH]cn1)[C@@H](C)O)[C@@H](C)CC)C(=O)N[C@@H](CC(N)=O)C(=O)N[C@@H](Cc1c[nH]c2ccccc12)C(=O)N[C@@H](CC(C)C)C(=O)N[C@H](C(=O)N[C@@H](CCC(N)=O)C(=O)N[C@H](C(=O)N[C@@H](CCCCN)C(=O)N[C@H](C(=O)N[C@H](C(=O)N[C@@H](CC(=O)O)C(=O)O)[C@@H](C)O)[C@@H](C)CC)[C@@H](C)O)[C@@H](C)CC` [[bAla2]hGLP-2(1-33)] (H-H[βAla]DGSFSDEMNTILDNLAARDFINWLIQTKITD-OH), in that order: 0% and 118%.
